According to US8653104B2, “PTEN inhibitor or Maxi-K channels opener” (Otsuka Pharmaceuticals Co., Ltd., priority 2003, dated 2014):
Blank lines part the entries; values can stand above or below the compound they belong to.

Tests used:
PTEN = experiment: Suppression of TNF-α-stimulated increase in PTEN phosphorylation level, Western blot in SK-N-SH cells; format: cell-based, human; conditions: cilostazol 1, 10 and 100 μM given 3 hours before TNF-α (50 ng/ml, one hour)
Method: (§1) Cell cultures: SK-N-SH (KCLB 30011, human brain neuroblastoma) cells were cultured in Eagle's minimum essential medium (MEM) with 2 mM L-glutamine and 1.0 mM sodium pyruvate supplemented with 10% heat-inactivated fetal bovine serum. Cells were grown to confluence at 37° C. in 5% CO2 and used for experiments at no greater than passage 20.
Preparation of TNF-α solution: TNF-α (Upstate Biotechnology, Inc., Lake Placid, N.Y.) was dissolved in the phosphate buffered saline as a 10 μg/ml stock solution.
Western blot analysis: The confluent cells received MEM medium with 1% FBS plus cilostazol 3 hours prior to stimulation with TNF-α and then were exposed to TNF-α for one hour.
The cells were lysed in lysis buffer containing 50 mM Tris-Cl (pH 8.0), 150 mM NaCl, 0.02% sodium azide, 100 μg/ml phenylmethylsulfonyl fluoride, 1 μg/ml aprotinin and 1% Triton X-100. […] The signals of the bands were quantified using a GS-710 Calibrated imaging Densitomerter (Bio-Rad Laboratories, Hercules, Calif.). The results were expressed as a relative density. […]
Statistical analysis: The results are expressed as means±SEM. Statistical differences between groups were determined by Student's t-test. p<0.05 was considered to be significant.

Maxi-K channels = biological target: T1, Maxi-K channels (Homo sapiens, UniProt Q12791); experiment: Whole-cell K+ current recording (patch clamp) in SK-N-SH cells; format: cell-based
T1 construct: endogenous in cells; host or cells: SK-N-SH (KCLB 30011) human neuroblastoma cells
Method: as §1
Recording of the whole-cell K^+ current: The experiments were performed in a small bath (0.5 ml) mounted on the stage of an inverted microscope (Nikon model TE300, Tokyo, Japan) perfused continuously at a flow rate of 1 ml/min. Using the whole-cell configuration of the patch clamp technique, the K^+ currents were recorded at room temperature (20˜22° C.) with an Axopatch-200B patch clamp amplifier (Axon Instruments, Foster City, Calif.). Currents were sampled at 1 to 10 kHz after anti-alias filtering at 0.5 to 5 kHz. Data acquisition and command potentials were controlled by pClamp 6.0.3 software (Axon Instruments, Foster City, Calif.). To ensure the voltage clamp quality, electrode resistance was kept below 3 MΩ. Junction potentials were zeroed with the electrode in the standard bath solution. Gigaohm seal formation was achieved by suction and, after establishing the whole cell configuration, the capacitive transients elicited by symmetrical 10 mV voltage clamp steps from −80 mV were recorded at 50 kHz for calculation of cell capacitance. The normal bath solution for the whole-cell recordings was: NaCl 130 mM, KCl 5 mM, MgCl2 1.2 mM, CaCl2 1.8 mM, HEPES 10 mM, glucose 5.2 mM and the pH was adjusted to 7.4 with NaOH. Pipettes were filled with KCl 140 mM, MgCl2 0.5 mM, CaCl2 0.1 mM, ethylenebis(oxonitrilo) tetra-acetic acid (EGTA) 0.09 mM, HEPES 10 mM, glucose 10 mM and the pH was adjusted to 7.4 with KOH.
After establishment of whole-cell recordings and collecting control recordings for approximately 5 minutes until the current elicited by depolarization stabilized, cilostazol was applied to the bath. In the experiments, using glibenclamide or iberiotoxin, cilostazol was applied to the bath about 20 minutes after administering glibenclamide or iberiotoxin.

T1 sequence (Q12791 whole entry): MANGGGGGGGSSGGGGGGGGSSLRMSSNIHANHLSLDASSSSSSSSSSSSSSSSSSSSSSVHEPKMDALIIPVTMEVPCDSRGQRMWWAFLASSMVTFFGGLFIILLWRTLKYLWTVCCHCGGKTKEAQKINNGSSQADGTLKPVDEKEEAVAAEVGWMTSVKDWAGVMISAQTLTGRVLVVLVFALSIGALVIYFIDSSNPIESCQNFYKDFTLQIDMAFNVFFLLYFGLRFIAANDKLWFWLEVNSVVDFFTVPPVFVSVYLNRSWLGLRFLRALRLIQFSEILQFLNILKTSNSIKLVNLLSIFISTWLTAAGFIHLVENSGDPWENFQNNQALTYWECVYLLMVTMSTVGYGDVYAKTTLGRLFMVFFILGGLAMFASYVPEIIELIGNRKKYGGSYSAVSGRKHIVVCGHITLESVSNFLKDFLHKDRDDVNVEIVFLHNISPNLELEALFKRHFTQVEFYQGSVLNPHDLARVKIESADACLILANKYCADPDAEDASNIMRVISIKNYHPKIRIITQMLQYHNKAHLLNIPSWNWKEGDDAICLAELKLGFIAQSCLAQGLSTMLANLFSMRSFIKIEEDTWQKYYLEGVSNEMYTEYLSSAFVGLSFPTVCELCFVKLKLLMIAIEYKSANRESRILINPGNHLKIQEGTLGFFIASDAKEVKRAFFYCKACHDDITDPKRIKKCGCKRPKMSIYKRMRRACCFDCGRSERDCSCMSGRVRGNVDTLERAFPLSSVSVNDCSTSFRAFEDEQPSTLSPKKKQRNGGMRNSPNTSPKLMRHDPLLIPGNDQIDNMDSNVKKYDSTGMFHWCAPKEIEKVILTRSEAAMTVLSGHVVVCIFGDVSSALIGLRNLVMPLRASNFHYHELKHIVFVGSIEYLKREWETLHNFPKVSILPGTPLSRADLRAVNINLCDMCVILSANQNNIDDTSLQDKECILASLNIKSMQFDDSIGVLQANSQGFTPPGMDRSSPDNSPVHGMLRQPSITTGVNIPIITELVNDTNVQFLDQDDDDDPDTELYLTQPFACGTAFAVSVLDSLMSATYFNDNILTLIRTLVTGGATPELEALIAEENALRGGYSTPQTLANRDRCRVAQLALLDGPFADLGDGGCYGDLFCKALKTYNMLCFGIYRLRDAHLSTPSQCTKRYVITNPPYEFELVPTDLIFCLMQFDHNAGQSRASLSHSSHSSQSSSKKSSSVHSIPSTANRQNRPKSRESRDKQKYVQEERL

Compound: O=C1CCc2cc(OCCCCc3nnnn3C3CCCCC3)ccc2N1 [cilostazol, 6-[4-(1-cyclohexyl-1H-tetrazol-5-yl)butoxy]-3,4-dihydro-carbostyril]
TNF-α-stimulated increased PTEN phosphorylation level (PTEN): concentration-dependently suppressed | Maxi-K channel-mediated currents in co-existence of glibenclamide (Maxi-K channels; cilostazol applied about 20 minutes after glibenclamide): increase in maxi-K channel-medicated currents was given | whole-cell calcium activated K+ current (Maxi-K channels; cilostazol applied to the bath alone): significantly increased | K+ current when added together with iberiotoxin (Maxi-K channels; cilostazol together with iberiotoxin, compared with iberiotoxin alone): increase of the current was rather less than iberiotoxin alone

block of the cilostazol-increased K+ current (Maxi-K channels; glibenclamide 10 μM added to the bath): not | Maxi-K channel-mediated currents, blocker alone (Maxi-K channels; glibenclamide alone): could not increase
Compound: COc1ccc(Cl)cc1C(=O)NCCc1ccc(S(=O)(=O)NC(=O)NC2CCCCC2)cc1 [glibenclamide, 5-chloro-N-[2-[4-[[[(cyclohexyl-amino)carbonyl]amino]sulfonyl]phenyl]ethyl]-2-methoxy-benzamide]

Compound: iberiotoxin
block of the cilostazol-increased K+ current (Maxi-K channels; iberiotoxin 100 nM added to the bath): reversibly blocked
